Measurements: patent US20210349108A1, “IMMUNOASSAY FOR MEASURING C-PEPTIDE” (Roche Diabetes Care GmbH, priority 2018, published 2021)

Columns and labels:
[1] = tested on: anti-C-peptide antibody PEP001; assay: QCM displacement immunoassay, ligand immobilized on Au-surface, antibody PEP001; type: binding; settings: for QCM frequency change on addition of sample containing WT-C-peptide (displacement of the ligand, release of antibody-C-peptide-complex): streptavidin/ligand/PEP001 assembly on Au-surface
Text: An Au-substrate is covered with a self-assembled monolayer (SAM). This self-assembled monolayer protects the surface from unspecific adsorption of peptides or proteins. Part of the SAM molecules is coupled with biotin, which is exposed on the surface. To this surface the biotin binding protein streptavidin is applied and bound by the biotin moieties. Since streptavidin has a plurality of binding sides for biotin, a ligand labeled with biotin can be bound to the streptavidin. Finally, anti-C-peptide antibody PEP001 is added, which binds to the ligand forming an immobilized antibody-ligand-complex, which is schematically depicted in FIG. 2. The stepwise build-up of an immobilized antibody-ligand-complex on the Au-surface can be monitored using a Quartz Crystal Microbalance (QCM). […] Referring to FIG. 3, attachment of streptavidin and Mut6-C-peptide results in a frequency shift of about −20 Hz. The binding of antibody PEP001 to the ligand Mut6-C-peptide results in a frequency shift of about >−50 Hz.
Addition of a sample containing C-peptide results in displacement of the ligand by wild type C-peptide and release of a C-peptide-antibody-complex as schematically shown in FIG. 2.
A quantitative determination of the amount of C-peptide within a sample can be achieved by calibrating the assay using solutions having known C-peptide concentrations. The amount of frequency shift observed for a sample indicates the quantitative amount of C-peptide being present within that sample.
An immunoassay as described in Example 1 was provided except that Mut3-C-peptide, Mut2-C-peptide or Mut5-C-peptide were used as ligand.
As described in Example 1, a SAM/biotin/streptavidin/biotin-ligand/antibody-complex is immobilized on an Au-surface. In this Example the ligand was C-peptide mutant B10-25_Mut3, the antibody was PEP001.
Immobilization of a ligand to a surface can also be performed using a linker (instead of a self-assembling monolayer). A suitable linker is for example a cysteine linker. In this configuration immobilization of an antibody via an antibody-ligand-complex to the surface can be detected by measuring impedance. A ligand having the sequence N-[…]-C(SEQ ID NO:7) was directly immobilized on an Au-surface. Additionally, 6-ferrocenyl-1-hexanethiol was bound to the Au surface for enhanced impedance measurement. Unspecific protein binding to the surface was avoided by incubation with a polyethylene glycol (ML-PEG) and bovine serum albumin (BSA).

[2] = tested on: anti-C-peptide antibody CPT-3-F11; assay: QCM displacement immunoassay, ligand immobilized on Au-surface, antibody CPT-3-F11; type: binding

N-VELGGGPGAGSIQPLA-C (variant C-peptide Mut3) [Mut3-C-peptide, C-peptide variant AA10-25; L(21)to I]
QCM frequency change on addition of sample containing WT-C-peptide (displacement of the ligand, release of antibody-C-peptide-complex) ([1]; QCM): considerable frequency increase
QCM frequency change on adding WT-C-peptide (release of antibody-WT-C-peptide-complex) ([1]; continuous assay, 500 ng/ml WT-C-peptide, antibody PEP001): positive frequency shift

N-CGSGSGSGS-VELGGGPGAGSLAPLA-C (CGSGSGSGSVELGGGPGAGSLAPLA; variant C-peptide Mut6-Cys) [SEQ ID NO:7, AA10-25; Q(22) to A and including a cysteine linker]
QCM frequency change on addition of PEP001 antibody ([1]; ligand directly immobilized on Au-surface via cysteine linker): considerable negative shift of the frequency
effect of addition of WT-C-peptide on bound antibody ([1]; ligand directly immobilized on Au-surface via cysteine linker, QCM): release of the bound antibody

N-GQVECGGGPG-C (variant C-peptide Mut18) [Mut18-C-peptide, C-peptide variant AA8-17; L(12)to C]
QCM frequency change on addition of sample containing WT-C-peptide (displacement of the ligand) ([2]; antibody CPT-3-F11): considerable frequency increase
frequency shift on addition of anti-C-peptide antibody CPT-3-F11 ([2]; streptavidin/ligand assembly on Au-surface): ~−30 Hz

N-VELGGGPGAGSLAPLA-C (variant C-peptide Mut6) [Mut6-C-peptide, C-peptide variant AA10-25; Q(22)to A]
frequency shift on binding of antibody PEP001 to the ligand ([1]; QCM, biotin-labeled ligand on SAM/biotin/streptavidin Au-surface, negative shift = mass increase): > −50 Hz
QCM frequency change on addition of sample containing WT-C-peptide (displacement of the ligand, release of antibody-C-peptide-complex) ([1]; QCM): observable positive frequency shift
